Measurements taken from PMC5004831, “Molecular and biochemical characterization of carbonic anhydrases of Paracoccidioides” (Genetics and Molecular Biology, 2016).

Experiments:
[1] = molecular target: T1, rCA1 (CA1), beta-class carbonic anhydrase of Paracoccidioides (Paracoccidioides lutzii, UniProt C1H4M3); assay: CO2 hydration, electrometric (Wilbur-Anderson); format: biochemical; conditions: read-out: CA1- Residual Activity (%)
T1 construct: gene PAAG_05716; complete cDNA, 282 residues, GST fusion (pGEX-4T-3) from E. coli, GST cut by thrombin; 33 kDa
T1 sequence (C1H4M3 1-282): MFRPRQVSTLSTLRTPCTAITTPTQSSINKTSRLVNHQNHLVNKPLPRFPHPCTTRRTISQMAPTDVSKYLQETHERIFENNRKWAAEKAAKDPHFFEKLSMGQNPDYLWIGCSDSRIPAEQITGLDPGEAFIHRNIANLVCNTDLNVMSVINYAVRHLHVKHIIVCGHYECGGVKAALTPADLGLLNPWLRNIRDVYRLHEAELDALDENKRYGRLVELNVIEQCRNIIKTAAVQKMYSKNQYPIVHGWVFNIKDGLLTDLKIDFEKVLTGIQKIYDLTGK
Description: CO2 hydration, electrometric (Wilbur-Anderson) on rCA1 (CA1), beta-class carbonic anhydrase of Paracoccidioides

[2] = molecular target: T2, rCA4 (CA4), alpha-class carbonic anhydrase of Paracoccidioides (Paracoccidioides brasiliensis, UniProt B1PIT4); assay: CO2 hydration, electrometric (Wilbur-Anderson); format: biochemical; conditions: read-out: CA4- Residual Activity (%)
T2 construct: 32 kDa
T2 sequence (B1PIT4 1-301): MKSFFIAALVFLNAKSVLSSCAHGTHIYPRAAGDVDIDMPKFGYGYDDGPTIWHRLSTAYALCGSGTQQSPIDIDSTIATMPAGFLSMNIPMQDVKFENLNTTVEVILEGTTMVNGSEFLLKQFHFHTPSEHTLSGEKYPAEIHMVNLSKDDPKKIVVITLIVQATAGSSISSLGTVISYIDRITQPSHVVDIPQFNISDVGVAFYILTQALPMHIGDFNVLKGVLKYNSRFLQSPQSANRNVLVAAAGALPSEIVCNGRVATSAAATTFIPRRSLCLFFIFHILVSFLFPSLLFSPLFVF
Description: CO2 hydration, electrometric (Wilbur-Anderson) on rCA4 (CA4), alpha-class carbonic anhydrase of Paracoccidioides

SMILES	remaining activity at 25 µM [1]	remaining activity at 25 µM [2]
NCCCC[C@H](N)C(=O)O [L-Lys]	138%	140%
N[C@@H](Cc1c[nH]c2ccccc12)C(=O)O [L-Trp]	162%	158%
N=C(N)NCCC[C@H](N)C(=O)O [L-Arg]	130%	132%
N[C@@H](Cc1cnc[nH]1)C(=O)O [L-His]	142%	152%
